{"source": "patent US10143696B2", "about": "“Methods and compositions for decreasing gastric emptying” (priority 2015, dated 2018)", "key": {"[1]": {"tested_on": "Sprague-Dawley rats", "assay": "Gastric emptying of a test meal in rats", "format": "in vivo, rat", "protocol": "(§1) Rats were fasted overnight (16-18 hours) with free access to water. The next morning, compound was administered and animals were individually housed in bedding-free cages with pre-weighed food available ad libitum and access to water for 2 hours. The water and food were then removed and the remaining food was re-weighed. Gastric emptying of the ingested meal was assessed 4 hours later. Animals were euthanized by CO2 inhalation followed by thoracotomy. The abdominal cavity was opened, the pylorus and cardia were clamped and the stomach was removed. The excised stomach was weighed and then opened along the greater curvature, rinsed with tap water, lightly dried and re-weighed. The amount of food in the stomach (grams) was estimated based on the difference between the total weight of the stomach plus its contents and the weight of the stomach after the contents were removed. The meal ingested (food intake) was determined by the difference between pre- and post-feeding weight at the end of the 2 hour period. Gastric emptying during the 4 hour experiment is represented as: Gastric emptying=[1−(gastric content/food intake)]×100. Gastric Secretion\nMale, Sprague-Dawley rats (weighing between 229-264 g each and 4 rats per test group) were fasted overnight (19 hours). The rats were then orally administered 10 mg/kg, 30 mg/kg or 100 mg/kg of Compound A with a 0.5% MC or Capryol:Solutol:Polyethyleneglycol (CSP) vehicle or with a 0.5% MC or CSP vehicle alone. The rats were then placed in individual, bedding-free cages and allowed ad libitium access to pre-weighed food and water for two hours. The food and water were then removed and the food was reweighed. Gastric emptying was then assessed four hours later by euthanizing the rats and analyzing the stomach and stomach contents. […] Data are represented as the means+the standard error of the means (S.E.M). % Gastric Emptying in 4 hours=(1−(gastric content/food intake))×100. […] Data are represented as the means+S.E.M.\nMale, Sprague-Dawley rats (weighing between 235-268 g each and 4-6 rats per test group) were fasted overnight (19 hours). The rats were then subcutaneously administered 10 mg/kg, 30 mg/kg or 100 mg/kg of carbamazepine (Compound B) with a 25% HPBCD vehicle or with a 25% HPBCD vehicle alone. Some test animals were not dosed (i.e., naïve). The rats were then placed in individual, bedding-free cages and allowed ad libitium access to pre-weighed food and water for two hours. The food and water were then removed and the food was reweighed. […] Data are represented as the means+S.E.M. % Gastric Emptying in 4 hours=(1−(gastric content/food intake))×100.\nMale, Sprague-Dawley rats (weighing between 238-274 g each and 6 rats per test group) were fasted overnight (19 hours). The rats were then orally administered 30 mg/kg, 100 mg/kg or 300 mg/kg of carbamazepine (Compound B) with a 0.5% MC vehicle or with a 0.5% MC vehicle alone. The rats were then placed in individual, bedding-free cages and allowed ad libitium access to pre-weighed food and water for two hours. The food and water were then removed and the food was reweighed. […] Data are represented as the means+S.E.M. % Gastric Emptying in 4 hours=(1−(gastric content/food intake))×100.\nMale, Sprague-Dawley rats (weighing between 235-276 g each and 4-6 rats per test group) were fasted overnight (19 hours)."}, "[2]": {"tested_on": "CD1 mice", "assay": "Gastric emptying of a test meal in mice", "format": "in vivo", "protocol": "as §1\nMale, CD1 mice (weighing between 30-36 g each and 6 mice per test group) were fasted overnight (19 hours). The mice then were subcutaneously administered 3 mg/kg of Compound A with a 25% HPBCD vehicle, a 25% HPBCD vehicle alone, orally administered 100 mg/kg of Compound A with a 0.5% MC vehicle, or a 0.5% MC vehicle alone. The mice were then placed in individual, bedding-free cages and allowed ad libitium access to pre-weighed food and water for two hours. The food and water were then removed and the food was reweighed. Gastric emptying was assessed four hours later by euthanizing the mice and analyzing the stomach and stomach contents. Data were analyzed using an unpaired t-test where *P<0.05 and ***P<0.001 and represented as the means+S.E.M. % Gastric Emptying in 4 hours=(1−(gastric content/food intake)×100)."}, "[3]": {"tested_on": "Sprague-Dawley rats", "assay": "Gastric secretion volume and pH in fasted rats", "format": "in vivo, rat", "protocol": "Gastric section and acidity was assessed by direct measurement in fasted animals (Melo et al. (2006). “Effect of acid secretion blockade on acute gastric mucosal lesions induced by Tityus serrulatus scorpion toxin in anaesthetized rats.” Toxicon 48(5): 543-549). Rats were fasted with free access to water for 24 hours on wire inserts without bedding. The next day, all rats were dosed orally with 0.5% MC (5 ml/kg) to remove any residual stomach contents and test compound or vehicle was administered. The animals were water deprived for 3 hours, anesthetized with isoflurane (5% in O2), and a laparotomy was conducted followed by tight ligation of the pylorus and cardia. After ligation, the stomach was removed and the rat was immediately euthanized by decapitation. The stomach was opened along the greater curvature and gastric fluid collected into Eppendorf tubes and centrifuged (5 min at 10×1000 g). pH was determined by pipetting gastric fluid directly onto an indicator stick (Whatman, Panpeha Plus, pH0-14). Data are represented as the mean volume and mean pH.\nMale, Sprague-Dawley rats (weighing between 254-270 g each and 6 rats per test group) were fasted overnight (24 hours) on wire inserts without bedding. The rats were first orally dosed with 0.5% MC vehicle and then subcutaneously injected with 3 mg/kg or 10 mg/kg of Compound A with a 25% HPBCD vehicle or with a 25% HPBCD vehicle alone. The test animals were water deprived for 3 hours and then anesthetized with isoflurane and the pylorus and cardia were tightly ligated. The stomachs were then removed and the rats were euthanized. The gastric fluid was removed from the stomachs and collected in eppendorf tubes by cutting along the greatest curvature and spun in a centrifuge. Gastric secretion data were analyzed by a one-way ANOVA using a Bonferroni Multiple Comparison test, where *P<0.05 and **P<0.01 as compared to the appropriate vehicle. Data are represented as the means+S.E.M. PH data were analyzed by a one-way ANOVA using Dunnett's Multiple Comparison Test. Data are represented as the means+S.E.M.\nThis Example measured volume and pH of gastric secretion three hours post subcutaneous administration of 10 mg/kg of Compound A. The animals were water deprived during this time."}, "[4]": {"conditions": "naïve rats, p.o. 100 mg/kg, 0.5% MC (Example 13)"}, "[5]": {"conditions": "p.o. 10, 30, 100 mg/kg, 0.5% MC or CSP vehicle (Example 1)"}, "[6]": {"conditions": "p.o. 100 mg/kg, 0.5% MC vehicle"}, "[7]": {"conditions": "Compound A 10 mg/kg s.c. alone, three hours post administration (Example 17)"}, "[8]": {"conditions": "s.c. 3, 10 mg/kg, 25% HPBCD, 3 hours (Example 10)"}}, "note": "Entries after “also recorded” stand apart in the source; their conditions may differ.", "data": [{"compound": "C[C@H](Nc1cc(C(N)=O)nc(-c2ccc(Oc3ccc(OC(F)(F)F)cc3)cc2)n1)C(N)=O", "note": "[Compound A]", "values": [{"measurement": "% Gastric Emptying in 4 hours", "setting": "[1]; Compound A 3 mg/kg s.c. alone, 25% HPBCD (Examples 11, 12), 3 mg/kg", "value": "inhibits the percent of gastric emptying independently"}, {"measurement": "gastric emptying", "setting": "[1]; administered subcutaneously (Example 9)", "value": "decrease in gastric emptying"}, {"measurement": "gastric emptying inhibition potency of Compound A with a CSP vehicle compared to Compound D in 25% HPBCD", "setting": "[1]; all dosages tested", "value": "maintains a greater gastric emptying inhibition potency as compared to Compound D"}, {"measurement": "gastric emptying inhibition potency compared between compounds", "setting": "[1]; comparison at equal or similar dosages, routes and vehicles", "value": "greater gastric emptying inhibition potency than Compound B; also recorded: greater gastric emptying inhibition potency when compared to Compound B; also recorded: greater gastric emptying inhibition potency at lower dosages; also recorded: highest in vivo potency"}, {"measurement": "gastric emptying", "setting": "[1]; lowest dose tested orally, 10 mg/kg", "value": "~0", "unit": "%"}, {"measurement": "% Gastric Emptying in 4 hours", "setting": "[1]; [4]", "value": "statistically significant decrease in gastric emptying"}, {"measurement": "stomach weight", "setting": "[1]; [4]", "value": "increase in stomach weight"}, {"measurement": "% Gastric Emptying in 4 hours", "setting": "[1]; [5]", "value": "increased inhibition of gastric emptying"}, {"measurement": "stomach weight", "setting": "[1]; [5]", "value": "increased stomach weight"}, {"measurement": "gastric emptying inhibition and stomach weight increase, CSP vehicle compared to 0.5% MC vehicle", "setting": "[1]; p.o. 10-100 mg/kg (Example 1)", "value": "greater inhibiting effect on gastric emptying and stomach weight increase was observed with a CSP vehicle"}, {"measurement": "food intake", "setting": "[1]; rat, in vivo", "value": "decreased food intake"}, {"measurement": "stomach weight", "setting": "[1]; rat, in vivo", "value": "increased stomach weight"}, {"measurement": "stomach weight and food intake", "setting": "[1]; rat, in vivo", "value": "comparable to that of Compound A alone"}, {"measurement": "increase in potency on gastric emptying, subcutaneous as compared to oral administration", "setting": "[1]; s.c. vs p.o.", "value": "3-10 fold"}, {"measurement": "food intake", "setting": "[1]; vagotomized and naïve rats, p.o. 100 mg/kg (Example 13)", "value": "Food intake is inhibited"}, {"measurement": "stomach weight", "setting": "[1]; vagotomized rats, p.o. 100 mg/kg, 0.5% MC, vs vagotomy alone (Example 13)", "value": "not statically significantly different from vagotomy alone"}, {"measurement": "% Gastric Emptying in 4 hours", "setting": "[1]; vagotomized rats, p.o. 100 mg/kg, 0.5% MC, vs vagotomy alone (Example 13), 100 mg/kg", "value": "numerically additive effect on the inhibition of gastric emptying but not a statistically significant effect; also recorded: not statically significantly different from vagotomy alone"}, {"measurement": "% Gastric Emptying in 4 hours", "setting": "[2]; [6]", "value": "inhibit gastric emptying"}, {"measurement": "stomach weight", "setting": "[2]; [6]", "value": "stomach weight increase"}, {"measurement": "% Gastric Emptying in 4 hours", "setting": "[2]; s.c. 3 mg/kg, 25% HPBCD vehicle", "value": "inhibit gastric emptying"}, {"measurement": "pH of gastric secretion", "setting": "[3]; [7]", "value": "increase in gastric secretion and pH"}, {"measurement": "volume of gastric secretion", "setting": "[3]; [7]", "value": "increase in gastric secretion and pH"}, {"measurement": "volume and pH of gastric secretion", "setting": "[3]; lansoprazole 30 mg/kg p.o. 30 minutes prior to Compound A 10 mg/kg s.c. (Example 17)", "value": "not different from that achieved by Compound A alone"}, {"measurement": "pH of gastric secretion", "setting": "[3]; [8]", "value": "remains unaffected"}, {"measurement": "volume of gastric secretion", "setting": "[3]; [8]", "value": "increases with increasing dosages of Compound A"}]}]}
